“Also recorded” adds a separate entry of the source. Read-outs that look alike come from different tables or passages of the source.
Tests used:
[1] = system: Nausea and emesis due to Cancer chemotherapy; conditions: oral 10 mg/m^2 THC; 84 patients; cited from earlier work
[2] = system: Nausea and emesis due to Cancer chemotherapy; conditions: oral 5 or 15 mg/m^2 THC four times per day; 53 patients refractory to other antiemetics; cited from earlier work
[3] = system: Spasticity and pain due to spinal cord injury; conditions: oral THC (5 mg) or codeine (50 mg); 1 patient; cited from earlier work
[4] = system: AIDS-associated anorexia and cachexia; conditions: oral 2.5 mg THC twice daily; 139 patients; 42 days; cited from earlier work
[5] = cited from earlier work
[6] = system: Nausea and emesis due to Cancer chemotherapy; conditions: oral 10 mg/m^2 THC every 3 hours, 5 doses, 15 patients, cited from earlier work
[7] = system: Spasticity related to multiple sclerosis; conditions: oral 10 or 15 mg THC, rectal 5 or 10 mg THC; 2 patients; cited from earlier work
airways = conditions: nebulized micro-aerosol, propylene glycol vehicle; cited from earlier work
in vivo = conditions: for concentration at 20 min: brain
Experimental: (§1) Whether inhalation exposure to Δ^9 THC aerosol would elicit pharmacological effects indicative of cannabinoid activity in mice (Compton, D. R., Rice, K. C., De Costa, B. R., Rzdan, R. K., Melvin, L. S., Johnson, M. R., Martin, B. R., Cannabinoid structure-activity relationships: Correlation of receptor binding and in vivo activities, J Pharmacol Exp Ther, 265:218-226 (1993); Little et al., 1988) was determined.
(§2) Blood and brain levels of Δ^9-THC were determined as follows. Extraction and LC-MS quantification of Δ^9-THC from whole blood and brain tissue were modified from Lichtman, A. H., Poklis, J. L., Wilson, D. M., Martin, B. R., The pharmacological activity of inhalation exposure to marijuana smoke in mice, Drug Alc Depend, 63:107-116 (2001). Particularly, THC and 2H^3-THC were extracted from brain material which contains a high degree of lipids. Acetonitrile was added to the pelletized solids and stored in a freezer overnight to separate the acetonitrile layer (which contained THC/2H^3-THC) from the aqueous layers. The following day the acetonitrile layer was removed. In the Lichtman et al., study, 2 ml of 9:1 NaOH was added and the sample was vortexed. Four ml of 9:1 hexane:ethyl acetate was added and the sample was vortexed and spun […] for 30 minutes. The vials were then centrifuged at 4,000 rpm […] for 10 minutes. The organic layer was removed and evaporated. Upon drying, a derivatizing agent was added and the sample was vortexed, and each sample analyzed by GC/MS. In the present experimentation, the acetonitrile was instead evaporated to dryness under nitrogen. The material was then resolubilized in 0.1 ml methanol. LC-MS identification was used to quantify Δ^9-THC/2H^3-THC in blood and brain matrices. […] Fifty ng of ^2H3-THC (Radian Corporation, Austin, Tex.) was added to the blood sample, brain homogenate, and calibrators as an internal standard. Following an equilibration period, 2.5 ml of cold acetonitrile (HPLC grade, Fisher Scientific, Raleigh, N.C.) was added drop-wise while vortexing. The samples were then centrifuged (Precision Vari-Hi-Speed Centricone, Precision Scientific Co., Chicago, Ill.) at 2500 rpm for 15 minutes to pelletize solids, then stored in the freezer (−20° C.) overnight, allowing the acetonitrile layer to separate from the aqueous layers. The acetonitrile layer was then removed and evaporated to dryness under nitrogen. The Δ^9-THC/^2H3-THC was then resolubilized in 0.1 ml methanol (HPLC grade, Fisher Scientific).
(§3) LC-MS identification was used for quantification of Δ^9-THC and ^2H3-THC in blood and brain matrices using an 85:15 methanol: 1% glacial acetic acid (0.1% formic acid) mobile phase. A guard column was used inline with the standard reverse phase C18 column. The mass spectrometer was run in APCI+mode. Ions analyzed in single ion monitoring mode were 315 for Δ^9-THC and 318 for ^2H3-THC. A calibration curve was constructed for each assay based on linear regression using the peak-area ratios of Δ^9-THC to ^2H3-THC of the extracted calibration samples.

[8] = Blood levels of Δ^9-THC by LC-MS; conditions: mouse, whole blood
Experimental: as §1, §2, §3

[9] = system: Spasticity related to multiple sclerosis; conditions: 5 or 10 mg THC; 9 patients; cited from earlier work
[10] = system: Nausea and emesis due to Cancer chemotherapy; conditions: oral THC 15 mg/m^2, cited from earlier work
[11] = system: Pain due to advanced cancer; conditions: 10 and 20 mg THC, 60 and 120 codeine; 34 patients; cited from earlier work
asthmatic patients = conditions: low concentration aerosol; cited from earlier work
Glaucoma = conditions: oral 5, 10, 15 and 20 mg THC; 6 glaucoma patients; cited from earlier work
[12] = intravenous, bolus, 5 mg (Ohlsson et al., 1980)
[13] = oral, in cookies, 20 mg (Ohlsson et al., 1980)
[14] = oral, sesame oil in gelatin capsules, 2.5, 5, or 10 mg (PDR, 1995)
[15] = smoking, 13 mg (Ohlsson et al., 1980)

CCCCCc1cc(O)c2c(c1)OC(C)(C)[C@@H]1CCC(C)=C[C@@H]21 (relative stereo) [Δ^9 THC, (6aR-trans)-6a,7,8,10a-tetrahydro-6,6,9-trimethyl-3-pentyl-6H-dibenzo[b,d]-pyran-1-ol]
antiemetic efficacy compared with prochloperazine [1]: THC more effective than | patients with THC-induced partial or complete blockade of vomiting [2]: 72% of patients exhibited a | effect on spasticity [3]: THC had a beneficial effect | appetite increase over baseline [4]: Appetite increased 38% | nausea [4]: THC also decreased | weight change between THC and placebo groups [4]: nausea. No significant | % Dose in Plasma [5, 12]: 100% | Onset of Pharmacological Action [5, 12]: 10 min | Peak Plasma Levels (time) [5, 12]: 3 min | % Dose in Plasma [5, 13]: 4 to 12% | Onset of Pharmacological Action [5, 13]: 120-180 min | Peak Plasma Levels (time) [5, 13]: 60 to 90 min | % Dose in Plasma [5, 14]: 10 to 20% | Onset of Pharmacological Action [5, 14]: 0.5 to 1 hour | Peak Plasma Levels (time) [5, 14]: 120 to 480 min | % Dose in Plasma ([5]; smoking (THC lost to side stream smoke and pyrolysis), 13 mg (Ohlsson et al., 1980)): 8 to 24% | Onset of Pharmacological Action [5, 15]: 10 min | Peak Plasma Levels (time) [5, 15]: 3 min | patients with a fair response [6]: excellent response, 40% | plasma THC levels (mean + SD) [6]: THC levels 7.1 ± 6.9 (mean ng/ml | side effects [6]: tachycardia, few other side | patients with a reduction in nausea and vomiting ([6]; THC (17 mg) laced cigarettes if vomiting occurred): 93% patients had a | passive mobility and walking ability [7]: Improvement in passive | bronchial and systemic effects (airways): bronchodilation without systemic effects | brain levels relative to blood levels (in vivo; following inhalation, mice): roughly equivalent; also recorded: equivalent concentrations | brain levels higher than those found in blood (in vivo; i.v. administration, mice): approximately two to three | Kp at 20 min (in vivo; mouse, brain relative to whole blood, iv): 2 to 3 | concentration at 20 min (in vivo; mouse, inhaled, 20 actuations): 340 ± 36 ng/g | concentration at 20 min (in vivo; mouse, inhaled, 40 actuations): 791 ± 94 ng/g | concentration at 20 min (in vivo; mouse, inhaled, 60 actuations): 890 ± 151 ng/g | concentration at 20 min (in vivo; mouse, iv, 1 mg/kg): 307 ± 28 ng/g | concentration at 20 min (in vivo; mouse, iv, 3 mg/kg): 854 ± 42 ng/g | concentration at 20 min (in vivo; mouse, iv, 10 mg/kg): 3310 ± 190 ng/g | concentration at 20 min ([8]; inhaled, 20 actuations): 409 ± 86 ng/g | concentration at 20 min ([8]; inhaled, 40 actuations): 788 ± 273 ng/g | concentration at 20 min ([8]; inhaled, 60 actuations): 1130 ± 240 ng/g | concentration at 20 min ([8]; iv, 1 mg/kg): 102 ± 6 ng/g | concentration at 20 min ([8]; iv, 3 mg/kg): 365 ± 39 ng/g | concentration at 20 min ([8]; iv, 10 mg/kg): 1320 ± 38 ng/g | side effects [9]: treatment, minimal side | spasticity compared to placebo treatment [9]: Decrease in spasticity | patients with reduction in chemotherapy-induced nausea and vomiting ([10]; 36 patients refractory to prochlorperazine or thiethylperazine): 64% of patients given THC | side effects ([10]; 36 patients): effects included dysphoria; | analgesic potency compared with codeine [11]: greater potency than | degree of analgesia compared with codeine [11]: THC produced a similar | bronchial and systemic effects (asthmatic patients): bronchodilation without systemic side effects | appetite (Glaucoma): appetite stimulation, | mood (Glaucoma): elevated mood | pain (Glaucoma): Pain relief

— patent US6713048B2, “Δ9 tetrahydrocannabinol (Δ9 THC) solution metered dose inhalers and methods of use” (Virginia Commonwealth University, priority 1998, dated 2004)
